Positions count from the first letter of the chain named.
Experiments:
[1] = test system: human airway epithelial cultures; settings: background description; cited from earlier work
T lymphocytes = settings: one day after stimulation; cited from earlier work
GFP-hHv1 G199C mutant = target: T1, GFP-hHv1 G199C mutant (Homo sapiens, UniProt Q96D96, G199C); assay: Patch-clamp currents of GFP-hHv1 G199C mutant in transfected HEK cells; format: cell-based; settings: G199C mutant (engineered Cys at residue 199); FIG. 3
T1 construct: expressed in transfected cells; host or cells: HEK-293 cell clone HM1 (stably expresses the human muscarinic M1 receptor)
T1 sequence (Q96D96 1-273 G199C): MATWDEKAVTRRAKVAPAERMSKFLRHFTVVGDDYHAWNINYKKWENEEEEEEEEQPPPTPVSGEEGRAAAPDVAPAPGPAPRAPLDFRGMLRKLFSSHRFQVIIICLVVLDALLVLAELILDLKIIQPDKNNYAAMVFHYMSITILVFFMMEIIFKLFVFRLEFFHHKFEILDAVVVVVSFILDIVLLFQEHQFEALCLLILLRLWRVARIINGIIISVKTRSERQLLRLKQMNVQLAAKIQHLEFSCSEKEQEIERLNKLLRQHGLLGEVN

wt GFP-hHv1 = target: T2, wt GFP-hHv1 (Homo sapiens, UniProt Q96D96); assay: Patch-clamp currents of wt GFP-hHv1 in transfected HEK cells; format: cell-based; settings: wild-type channel
T2 construct: expressed in transfected cells; host or cells: HEK-293 cell clone HM1 (stably expresses the human muscarinic M1 receptor)
T2 sequence (Q96D96 1-273): T1 sequence (Q96D96 1-273 G199C) with C199G

SMILES	effect on acid secretion across the epithelium [1]	further results
Cc1nc2c(OCc3ccccc3)cccn2c1CC#N [Sch-28080]	not	
C[C@@H]1O[C@@H](O[C@H]2C[C@@H](O)[C@]3(CO)[C@H]4[C@H](O)C[C@]5(C)[C@@H](C6=CC(=O)OC6)CC[C@]5(O)[C@@H]4CC[C@]3(O)C2)[C@H](O)[C@H](O)[C@H]1O [ouabain]	not	
N=C(N)NC(=O)c1nc(Cl)c(N)nc1N [amiloride]	not	
CCCCCCCCCCCCCC(=O)O[C@@H]1[C@@H](C)[C@@]2(O)[C@@H](C=C(CO)C[C@]3(O)C(=O)C(C)=C[C@@H]23)[C@@H]2C(C)(C)[C@]12OC(C)=O [PMA, phorbol 12-myristate 13-acetate]		increase of H+ currents in T lymphocytes (T lymphocytes): 13 fold
[Cl-].[Cl-].[Zn+2] [ZnCl2]	inhibited	
CO/C1=C\C(C)=C\[C@@H](C)[C@@H](O)[C@@H](C)C/C(C)=C/C=C/[C@H](OC)[C@@H]([C@@H](C)[C@@H](O)[C@H](C)[C@@]2(O)C[C@@H](O)[C@H](C)[C@@H](C(C)C)O2)OC1=O [bafilomycin A1]	not	
Nc1ncnc2c1ncn2[C@@H]1O[C@H](COP(=O)(O)OP(=O)(O)OP(=O)(O)O)[C@@H](O)[C@H]1O [ATP]	stimulated	
NCCc1c[nH]cn1 [histamine]	stimulated	
C[N+](C)(C)CCSS(C)(=O)=O [MTSET, 2-(trimethylammonium)methanethiosulfonate]		effect on hHv1 currents (GFP-hHv1 G199C mutant): modulate hHv1 currents; effect on wt GFP-hHv1 currents (wt GFP-hHv1): little effect
